Laboratory results published in patent publication US11999720B2, “Pyrazolylacylpyrazoline compounds and method for treating pain” (THE TRUSTEES OF INDIANA UNIVERSITY, priority 2018, dated 2024).

Legend:
[1] = target: T1, CaV2.2 currents in rat DRG neurons (Rattus norvegicus, UniProt Q02294); assay: whole cell patch-clamp, CaV2.2 currents in rat DRG neurons; format: cell-based; conditions: 50 μM acute
T1 construct: from tissue; host or cells: dissociated dorsal root ganglion neurons (L4-L6) of young adult Sprague Dawley rats
T1 sequence (P54287 whole entry partner): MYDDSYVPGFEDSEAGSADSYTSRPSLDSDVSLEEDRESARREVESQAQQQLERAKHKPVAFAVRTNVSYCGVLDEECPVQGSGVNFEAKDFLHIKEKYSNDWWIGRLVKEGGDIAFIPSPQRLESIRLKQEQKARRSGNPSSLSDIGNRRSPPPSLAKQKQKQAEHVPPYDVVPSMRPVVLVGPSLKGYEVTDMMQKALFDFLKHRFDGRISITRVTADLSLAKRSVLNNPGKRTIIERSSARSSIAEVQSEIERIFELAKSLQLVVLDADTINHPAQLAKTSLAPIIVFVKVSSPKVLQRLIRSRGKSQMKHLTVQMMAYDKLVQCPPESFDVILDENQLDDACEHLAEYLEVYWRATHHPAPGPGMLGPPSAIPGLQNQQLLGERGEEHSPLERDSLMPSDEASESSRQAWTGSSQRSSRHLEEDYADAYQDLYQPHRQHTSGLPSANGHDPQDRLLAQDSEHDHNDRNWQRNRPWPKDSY
T1 sequence (Q02294 whole entry): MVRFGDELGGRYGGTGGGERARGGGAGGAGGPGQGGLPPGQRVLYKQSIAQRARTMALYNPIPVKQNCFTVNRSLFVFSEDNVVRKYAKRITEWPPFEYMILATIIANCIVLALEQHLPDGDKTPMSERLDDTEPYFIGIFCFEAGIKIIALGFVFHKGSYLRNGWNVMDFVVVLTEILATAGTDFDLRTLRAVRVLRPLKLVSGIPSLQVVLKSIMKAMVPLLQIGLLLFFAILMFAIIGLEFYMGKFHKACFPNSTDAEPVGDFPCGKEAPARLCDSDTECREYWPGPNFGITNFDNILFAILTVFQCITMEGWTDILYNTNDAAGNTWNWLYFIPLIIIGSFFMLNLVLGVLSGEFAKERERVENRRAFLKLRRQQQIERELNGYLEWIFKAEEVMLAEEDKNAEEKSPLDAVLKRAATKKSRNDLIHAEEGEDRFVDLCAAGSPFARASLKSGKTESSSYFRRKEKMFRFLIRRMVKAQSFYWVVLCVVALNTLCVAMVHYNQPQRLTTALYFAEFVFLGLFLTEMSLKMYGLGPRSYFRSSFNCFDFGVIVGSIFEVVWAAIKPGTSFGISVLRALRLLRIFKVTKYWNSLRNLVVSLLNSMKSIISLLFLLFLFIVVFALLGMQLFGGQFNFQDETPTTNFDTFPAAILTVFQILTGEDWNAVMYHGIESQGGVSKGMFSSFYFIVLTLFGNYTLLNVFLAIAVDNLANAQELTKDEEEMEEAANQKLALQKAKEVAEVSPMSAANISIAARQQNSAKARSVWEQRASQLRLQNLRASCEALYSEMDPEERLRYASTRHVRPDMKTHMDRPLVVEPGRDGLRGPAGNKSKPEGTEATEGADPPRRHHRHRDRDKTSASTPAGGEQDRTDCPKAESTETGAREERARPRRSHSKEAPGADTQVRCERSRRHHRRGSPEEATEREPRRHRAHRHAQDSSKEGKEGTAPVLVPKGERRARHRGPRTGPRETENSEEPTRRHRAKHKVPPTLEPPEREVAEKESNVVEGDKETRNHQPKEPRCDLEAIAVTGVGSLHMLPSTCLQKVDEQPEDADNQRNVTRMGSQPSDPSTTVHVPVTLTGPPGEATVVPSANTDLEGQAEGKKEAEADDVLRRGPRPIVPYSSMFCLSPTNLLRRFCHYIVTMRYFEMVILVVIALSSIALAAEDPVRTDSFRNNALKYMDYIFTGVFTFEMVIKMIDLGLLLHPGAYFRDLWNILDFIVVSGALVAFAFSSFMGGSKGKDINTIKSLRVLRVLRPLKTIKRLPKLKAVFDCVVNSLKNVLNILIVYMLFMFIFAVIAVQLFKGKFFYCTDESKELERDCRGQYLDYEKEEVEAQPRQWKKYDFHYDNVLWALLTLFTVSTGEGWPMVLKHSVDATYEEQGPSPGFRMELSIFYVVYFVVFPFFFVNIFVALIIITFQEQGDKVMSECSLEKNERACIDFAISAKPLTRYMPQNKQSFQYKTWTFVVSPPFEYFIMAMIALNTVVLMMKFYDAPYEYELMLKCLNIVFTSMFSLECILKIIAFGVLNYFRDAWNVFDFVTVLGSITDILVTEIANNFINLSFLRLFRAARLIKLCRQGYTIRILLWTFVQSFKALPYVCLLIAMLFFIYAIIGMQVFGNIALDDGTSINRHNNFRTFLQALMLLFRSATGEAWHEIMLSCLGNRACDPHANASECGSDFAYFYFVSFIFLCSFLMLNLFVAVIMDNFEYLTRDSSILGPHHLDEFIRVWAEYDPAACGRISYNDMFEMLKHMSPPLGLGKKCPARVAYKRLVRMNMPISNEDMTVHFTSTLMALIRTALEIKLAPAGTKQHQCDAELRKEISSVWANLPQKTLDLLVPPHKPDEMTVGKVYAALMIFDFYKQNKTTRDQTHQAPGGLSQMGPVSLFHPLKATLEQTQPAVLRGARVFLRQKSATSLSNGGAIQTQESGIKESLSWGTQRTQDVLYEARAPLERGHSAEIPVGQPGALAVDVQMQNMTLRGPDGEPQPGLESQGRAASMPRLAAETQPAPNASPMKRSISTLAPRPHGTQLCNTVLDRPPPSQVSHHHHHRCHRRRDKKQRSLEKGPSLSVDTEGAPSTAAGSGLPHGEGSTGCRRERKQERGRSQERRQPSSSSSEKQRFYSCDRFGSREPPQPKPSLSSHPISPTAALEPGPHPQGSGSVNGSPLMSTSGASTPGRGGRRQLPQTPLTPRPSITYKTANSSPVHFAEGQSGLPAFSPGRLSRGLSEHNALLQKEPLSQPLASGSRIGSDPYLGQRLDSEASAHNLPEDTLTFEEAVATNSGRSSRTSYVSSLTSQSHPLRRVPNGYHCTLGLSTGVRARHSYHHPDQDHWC
Protocol: The whole cell patch-clamp technique was used to record CaV2.2 currents in HEK-CaV2.2 cells and rat DRG neurons. HEK293 cells that stably expressed rat N-type CaV2.2α1B, rat CaVβ3, and rat […] were utilized. Cells were grown in Dulbecco's modified Eagle's medium (DMEM) supplemented with 10% FBS, 50 units penicillin, 50 μg/ml streptomycin, 5 μg/ml blasticidin, 5 μg/ml hydromycin and 25 μg/ml zeozin at 37° C. in a humidified atmosphere of 95% air and 5% CO2. For patch clamp experiments, HEK-CaV2.2 cells were plated on glass coverslips and were cultured for 24-48 h. All animal procedures were performed in accordance to the NIH guide and were approved by the Indiana University School of Medicine Institutional Animal Care and Use Committee. Young adult Sprague Dawley rats were anesthetized (3% isoflurane) and then decapitated. The spinal column was removed, cut open, and dorsal root ganglia were harvested from the Lumbar L4-L6 vertebral levels. The ganglia were incubated in DMEM containing collagenase (1 mg/ml, Worthington: LS04194) and protease (1 mg/ml, Worthington: LS02104) for 30-60 minutes, and DRG neurons were dissociated by triturating in DMEM supplemented with 10% FBS. […]

[2] = tested on: acute thermal nociception in the rat; assay: acute thermal nociception in the rat (Hargreaves' plantar test); format: in vivo; conditions: for paw withdrawal latency (PWL), analgesic effect: rats, n=6 per group, FIG. 12
Protocol: Pathogen-free, adult, female Sprague Dawley (weight at testing 150-200 g; Harlan-Sprague-Dawley, Indianapolis, IN) were housed in a climate-controlled room on a 12-hour light/dark cycle and were allowed to have food and water ad libitum. All procedures were approved by the Indiana University Animal Care and Use Committee and conformed to the guidelines of the National Institutes of Health (publication no. 80-23, 1966) for the use of laboratory animals. All behavioral experiments were conducted by experimenters blinded to the treatment conditions and compound identity. The experiments were replicated a minimum of 2 times with independent cohorts of animals. For in vivo studies, the inventive compounds were freshly prepared saline (0.9%) on the day of the experiment. […] Louis, MO) was freshly prepared on the day of the experiment in saline. All drugs were dissolved in 1 mL solution and administered by intraperitoneal (i.p.) injections 1 h prior to all behavioral assays. To evaluate the PWT to thermal stimulation, the Hargreaves' plantar test apparatus (Ugo Basile, Varese, Italy) was used. Measurements of the withdrawal latency of the paw began after the rats were habituated to the testing environment (IR setting=70). The measurements were repeated four times, at 5 min intervals and the initial pair of measurements was not used. The averages of the three remaining pairs of measurements taken were employed as data. A model of behavioral sensitivity using thermal stimulus was used to determine the acute analgesic properties of the compounds of the present invention.

CaVα1CaVβ3 interaction = target: T2, CaVα1CaVβ3 interaction (Rattus norvegicus, UniProt P54287); assay: fluorescence polarization assay, inhibition constant; format: binding; conditions: fluorescence polarization assay
T2 construct: made in house; host or cells: E. coli BL21(DE3)
T2 sequence (P54287 whole entry): as the sequence (P54287 whole entry partner) above
Protocol: (§1) The plasmid of pET28a-CaV2.2β3 subunit was transformed into competent E. Coli BL21(DE3) strain. Culture was grown in LB medium at 37° C. to an OD600 of approximately 0.6 and then induced with 0.5 mM IPTG at 16° C. for 16 h. Cells were collected by centrifugation and lysed by microfluidizer in lysis buffer (phosphate buffer, pH 7.6, 2 mM DTT). The His-CaVβ3 protein was purified at 4° C. using Ni-IMAC chromatography (His-Trap HP, GE Healthcare) and eluted with 500 mM imidazole in lysis buffer with a gradient method. After the fractions consisted of His-CaVβ3 was combined and concentrated, the protein was further purified using size exclusion chromatography (Superdex 200 pg, GE Healthcare) in PBS with 2 mM DTT.
(§2) Compound 6 forms a salt bridge interaction with Arg-307 through a benzoic acid moiety. […] Arg-307 was mutated to alanine.

[3] = tested on: tibial nerve injury (TNI) model of neuropathic pain; assay: tibial nerve injury (TNI) model of neuropathic pain, von Frey withdrawal threshold; format: in vivo, rat; conditions: for withdrawal threshold to von Frey stimulation: 1 h, 28 days after TNI, before dosing 33.1±5.9, pre-surgery 68.7±3.7
Protocol: Pathogen-free, adult, female Sprague Dawley (weight at testing 150-200 g; Harlan-Sprague-Dawley, Indianapolis, IN) were housed in a climate-controlled room on a 12-hour light/dark cycle and were allowed to have food and water ad libitum. All procedures were approved by the Indiana University Animal Care and Use Committee and conformed to the guidelines of the National Institutes of Health (publication no. 80-23, 1966) for the use of laboratory animals. All behavioral experiments were conducted by experimenters blinded to the treatment conditions and compound identity. The experiments were replicated a minimum of 2 times with independent cohorts of animals.
For in vivo studies, the inventive compounds were freshly prepared saline (0.9%) on the day of the experiment. Morphine sulfate salt (Sigma-Aldrich, St. Louis, MO) was freshly prepared on the day of the experiment in saline. […]
The inventive compounds were assessed with the tibial nerve injury (TNI) model of neuropathic pain 28 days after surgery. Using isoflurane anesthesia (4% induction and 2% maintenance), the right sciatic nerve was isolated under aseptic surgical conditions by blunt dissection of the femoral biceps muscle and the tibial nerve was tightly ligated with 5-0 silk and transected distal to the ligation. Additional 2 to 3 mm of distal nerve stump was removed to prevent reinnervation by the proximal nerve. The overlying muscle and skin was then sutured in 2 separate layers. Sham-injured animals were subjected to all preceding procedures with the exception of ligation and transection. All animals were returned to the housing facility and allowed to survive for 28 d. Mechanical stimuli were applied with 7 filaments, each differing in the bending force delivered (10, 20, 40, 60, 80, 100, and 120 mN), and fitted with a flat tip and fixed diameter of 0.2 mm. The filaments were tested in the order of ascending force, with each filament delivered for 1 second. Withdrawal threshold was determined by sequentially increasing and analyzed with Hill equation was fitted to the function (Origin version 6.0; Microcal Software) relating the percentage of indentations eliciting a withdrawal to the force of indentation.

CaVβ3 = target: T3, CaVβ3 (Rattus norvegicus, UniProt P54287); assay: label-free microscale thermophoresis (MST), direct binding; conditions: direct binding to CaVβ3, read-out: dissociation constant (Kd)
T3 construct: made in house; host or cells: E. coli BL21(DE3)
T3 sequence (P54287 whole entry): as the sequence (P54287 whole entry partner) above
Protocol: Curve fitting analysis led to a dissociation constant of 3.6±1.1 μM.
as §1
Direct binding of compound 6 to CaVβ3 was confirmed with label-free microscale thermophoresis (MST).

CaVβ3 Arg-307-Ala = target: T4, CaVβ3 Arg-307-Ala (Rattus norvegicus, UniProt P54287, R307A); assay: site-directed mutagenesis: displacement of fluorescently-labeled CaVα1-AID bound to mutated CaVβ3; format: binding
T4 construct: His; made in house
T4 sequence (P54287 whole entry R307A): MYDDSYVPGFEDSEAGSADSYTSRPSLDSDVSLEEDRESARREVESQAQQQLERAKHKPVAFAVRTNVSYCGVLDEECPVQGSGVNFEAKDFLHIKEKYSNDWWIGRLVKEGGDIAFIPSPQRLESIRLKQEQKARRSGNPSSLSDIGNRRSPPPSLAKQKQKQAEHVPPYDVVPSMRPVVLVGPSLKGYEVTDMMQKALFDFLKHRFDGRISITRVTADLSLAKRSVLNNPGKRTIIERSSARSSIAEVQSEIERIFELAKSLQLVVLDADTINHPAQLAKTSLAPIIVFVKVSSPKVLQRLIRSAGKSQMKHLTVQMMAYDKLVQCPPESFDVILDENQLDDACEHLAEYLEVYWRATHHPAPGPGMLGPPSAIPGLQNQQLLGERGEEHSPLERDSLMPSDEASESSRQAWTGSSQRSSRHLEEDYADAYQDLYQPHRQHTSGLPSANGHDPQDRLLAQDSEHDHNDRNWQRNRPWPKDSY
From the text: as §2

[4] = tested on: T5, CaV2.2 channels in HEK-CaV2.2 cells (Rattus norvegicus); assay: whole cell patch-clamp, CaV2.2 currents in HEK-CaV2.2 cells; format: cell-based
T5 construct: expressed in transfected cells
T5 sequence (P54287 whole entry): as the sequence (P54287 whole entry partner) above
Protocol: The G-V curves are shown.
HEK-CaV2.2 cells were pretreated with various concentrations of compound 14 for 48 hours. CaV2.2 currents were acquired during 20-ms depolarizing pulses, and the current densities were calculated as a ratio of the peak current amplitude and each cell capacitance (0.1 μM, n=6; 1 μM, n=7; 10 μM, n=8; 50 μM, n=12). The line is the fit of the data to the four-parameter logistic function.
EK-CaV2.2 cells were pretreated with the indicated compounds for 48 hours. *** corresponds to […].
FIGS. 8 and 9 show the effects of 2 and 14 on the voltage dependence of activation of CaV2.2 channels in HEK-CaV2.2 cells pretreated with the vehicle or the indicated compounds for 48 hours. […] The gray vertical lines are the error bars (S.E.M.).
FIGS. 10 and 11 show acute effects of DMSO and 14 on the voltage dependence of activation of CaV2.2 channels in HEK-CaV2.2 cells. […] The gray vertical lines are the error bars (S.E.M.). “ns”—stands for not significant.
The whole cell patch-clamp technique was used to record CaV2.2 currents in HEK-CaV2.2 cells and rat DRG neurons. HEK293 cells that stably expressed rat N-type CaV2.2α1B, rat CaVβ3, and rat […] were utilized. Cells were grown in Dulbecco's modified Eagle's medium (DMEM) supplemented with 10% FBS, 50 units penicillin, 50 μg/ml streptomycin, 5 μg/ml blasticidin, 5 μg/ml hydromycin and 25 μg/ml zeozin at 37° C. in a humidified atmosphere of 95% air and 5% CO2. For patch clamp experiments, HEK-CaV2.2 cells were plated on glass coverslips and were cultured for 24-48 h. All animal procedures were performed in accordance to the NIH guide and were approved by the Indiana University School of Medicine Institutional Animal Care and Use Committee. Young adult Sprague Dawley rats were anesthetized (3% isoflurane) and then decapitated. The spinal column was removed, cut open, and dorsal root ganglia were harvested from the Lumbar L4-L6 vertebral levels. The ganglia were incubated in DMEM containing collagenase (1 mg/ml, Worthington: LS04194) and protease (1 mg/ml, Worthington: LS02104) for 30-60 minutes, and DRG neurons were dissociated by triturating in DMEM supplemented with 10% FBS. The isolated DRG neurons were plated on glass coverslips coated with growth factor reduced Matrigel (Thermo Fisher Scientific, Waltham, MA) and were cultured in Eagle's minimum essential medium (Invitrogen, CA) supplemented with 0.2% BSA and 20 ng/ml NGF-2.5S (BD Biosciences, Bedford, MA) at 37° C. in a water-jacketed 5% CO2 incubator overnight for the patch-clamp experiments.

Row | SMILES | effect on CaV2.2 currents, acute application [1] | paw withdrawal latency (PWL), analgesic effect [2] | response latency to thermal stimulus ([2]; systemic administration, 1 or 10 mg/kg) | Ki (CaVα1CaVβ3 interaction) [nM] | effect on behavior (tactile hypersensitivity) ([3]; 1 mg/kg and 0.1 mg/kg, at 1 or 4 hours) | withdrawal threshold to von Frey stimulation ([3]; 10 mg/kg ip) [mN] | attenuation of tactile hypersensitivity at 4 h ([3]; 10 mg/kg ip, 4 h after administration) | duration of reversal of mechanical hypersensitivity ([3]; 10 mg/kg, 4 weeks after TNI) | Kd (CaVβ3) [µM] | inhibition of the protein-protein interaction with CaVβ3 Arg-307-Ala (displacement of fluorescently-labeled CaVα1-AID) (CaVβ3 Arg-307-Ala) | effect on CaV2.2 currents, acute application ([4]; 50 μM acute, HEK-CaV2.2 cells) | CaV2.2 current density ([4]; 50 μM, pretreated 48 hours, DMSO −98.0±12.5) [pA/pF] | mean half-activation potential ([4]; pretreated 48 hours (50 μM per FIG. 4), DMSO 6.7±0.6) [mV] | steady-state inactivation V0.5, inact ([4]; 50 μM, pretreated 48 hours) [mV] | density of CaV2.2 currents ([4]; 50 μM, pretreated 48 hours, depolarizing pulses to 0 mV from holding potential −80 mV, DMSO −74.8±7.0) [pA/pF] | mean half-activation potential V0.5, act ([4]; pretreated 48 hours, DMSO 8.7±1.1) [mV] | effect on CaV2.2 currents amplitudes ([4]; used acutely or as a long-term treatment, HEK-CaV2.2 cells)
1 | COc1ccc(C2=NN(C(=O)c3cccc(C(=O)O)c3)C(c3cn(-c4ccccc4)nc3-c3ccc(C)cc3)C2)cc1 (stereo not shown) [Compound 6, 3-(5-(4-methoxyphenyl)-1′-phenyl-3′-(p-tolyl)-3,4-dihydro-1′H,2H-[3,4′-bipyrazole]-2-carbonyl)benzoic acid] | did not affect | lack of analgesic effect | failed to elicit changes | 1400 ± 100 | did not alter behavior | 62.2±3.1 | not at 4 h | limited to 1 h | 3.6 ± 1.1 | does not inhibit | did not affect | −28.7±5.0 | 9.4±1.2 | – | – | – | –
2 | COc1ccc(C2=NN(C(=O)CCC(C)=O)C(c3cn(-c4ccccc4)nc3-c3ccc(C)cc3)C2)cc1 (stereo not shown) [Compound 2, 1-(5-(4-methoxyphenyl)-1′-phenyl-3′-(p-tolyl)-3,4-dihydro-1′H,2H-[3,4′-bipyrazol]-2-yl)pentane-1,4-dione] | – | lack of analgesic effect | – | – | – | 32±2.6 | – | – | – | – | – | – | – | −61.6±2.0 | −79.2±8.2 | 8.5±1.4 | did not affect
